Source: US11780821B2, “Inhibitors of fibroblast activation protein” (Praxis Biotech LLC, priority 2017, dated 2023)
Where two headings read alike, the source gives them in different places.

Columns and labels:
[1] = target: T1, recombinant human FAPα (rhFAPα) (Homo sapiens, UniProt Q12884); assay: FAPα enzymatic exopeptidase (dipeptidase) activity assay; format: biochemical; conditions: for IC50: exopeptidase, read-out: rhFAPα (exo IC50)
T1 construct: purchased R&S system (so in the source)
T1 sequence (Q12884 1-760): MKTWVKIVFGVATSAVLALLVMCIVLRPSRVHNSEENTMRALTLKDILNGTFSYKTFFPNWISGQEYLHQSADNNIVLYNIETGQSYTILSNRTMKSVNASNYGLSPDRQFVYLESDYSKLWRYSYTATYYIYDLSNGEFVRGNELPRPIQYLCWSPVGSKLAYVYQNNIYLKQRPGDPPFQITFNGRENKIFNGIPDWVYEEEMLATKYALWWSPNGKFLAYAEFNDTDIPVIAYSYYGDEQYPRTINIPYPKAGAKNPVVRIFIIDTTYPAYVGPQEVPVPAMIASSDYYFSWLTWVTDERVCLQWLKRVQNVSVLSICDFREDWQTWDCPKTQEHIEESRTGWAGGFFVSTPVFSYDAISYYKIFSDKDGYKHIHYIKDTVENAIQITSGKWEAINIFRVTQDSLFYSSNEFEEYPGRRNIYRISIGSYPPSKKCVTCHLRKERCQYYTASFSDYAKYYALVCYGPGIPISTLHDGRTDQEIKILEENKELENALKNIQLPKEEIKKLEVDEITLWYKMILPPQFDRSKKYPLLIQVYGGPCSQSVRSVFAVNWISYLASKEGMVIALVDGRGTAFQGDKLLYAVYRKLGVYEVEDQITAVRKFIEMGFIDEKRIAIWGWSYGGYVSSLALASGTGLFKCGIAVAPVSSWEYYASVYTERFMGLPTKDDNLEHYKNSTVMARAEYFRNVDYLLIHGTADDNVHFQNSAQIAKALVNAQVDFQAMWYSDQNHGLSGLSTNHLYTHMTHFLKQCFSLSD

[2] = target: T2, recombinant human DPPIV (rhDPPIV) (Homo sapiens, UniProt P27487); assay: DPPIV enzymatic activity assay; format: biochemical; conditions: H-Gly-Pro-pNA substrate
T2 construct: purchased R&S system (so in the source)
T2 sequence (P27487 whole entry): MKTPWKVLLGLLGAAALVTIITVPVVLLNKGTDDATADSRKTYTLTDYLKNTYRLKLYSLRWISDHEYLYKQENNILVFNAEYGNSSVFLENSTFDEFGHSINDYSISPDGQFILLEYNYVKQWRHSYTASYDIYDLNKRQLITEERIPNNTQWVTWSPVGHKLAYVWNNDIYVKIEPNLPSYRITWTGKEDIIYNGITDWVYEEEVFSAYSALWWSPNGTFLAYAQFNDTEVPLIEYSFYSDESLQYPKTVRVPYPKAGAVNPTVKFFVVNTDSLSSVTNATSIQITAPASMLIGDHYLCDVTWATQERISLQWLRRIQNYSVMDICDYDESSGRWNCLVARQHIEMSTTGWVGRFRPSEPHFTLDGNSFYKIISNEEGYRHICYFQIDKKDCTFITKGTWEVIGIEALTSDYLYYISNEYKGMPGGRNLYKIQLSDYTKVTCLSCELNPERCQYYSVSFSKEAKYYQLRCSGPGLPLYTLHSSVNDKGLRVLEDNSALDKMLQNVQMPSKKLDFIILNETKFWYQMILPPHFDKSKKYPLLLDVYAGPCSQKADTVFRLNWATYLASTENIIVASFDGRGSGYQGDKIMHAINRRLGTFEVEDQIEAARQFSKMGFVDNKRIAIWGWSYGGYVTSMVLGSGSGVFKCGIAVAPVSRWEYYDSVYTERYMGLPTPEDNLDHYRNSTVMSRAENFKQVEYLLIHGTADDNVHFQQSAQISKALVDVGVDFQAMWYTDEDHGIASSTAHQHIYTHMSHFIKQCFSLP

[3] = target: T3, recombinant human DPP9 (rhDPP9) (Homo sapiens, UniProt Q86TI2); assay: DPP9 enzymatic activity assay; format: biochemical; conditions: H-Gly-Pro-AMC substrate
T3 construct: purchased R&S system (so in the source)
T3 sequence (Q86TI2 whole entry): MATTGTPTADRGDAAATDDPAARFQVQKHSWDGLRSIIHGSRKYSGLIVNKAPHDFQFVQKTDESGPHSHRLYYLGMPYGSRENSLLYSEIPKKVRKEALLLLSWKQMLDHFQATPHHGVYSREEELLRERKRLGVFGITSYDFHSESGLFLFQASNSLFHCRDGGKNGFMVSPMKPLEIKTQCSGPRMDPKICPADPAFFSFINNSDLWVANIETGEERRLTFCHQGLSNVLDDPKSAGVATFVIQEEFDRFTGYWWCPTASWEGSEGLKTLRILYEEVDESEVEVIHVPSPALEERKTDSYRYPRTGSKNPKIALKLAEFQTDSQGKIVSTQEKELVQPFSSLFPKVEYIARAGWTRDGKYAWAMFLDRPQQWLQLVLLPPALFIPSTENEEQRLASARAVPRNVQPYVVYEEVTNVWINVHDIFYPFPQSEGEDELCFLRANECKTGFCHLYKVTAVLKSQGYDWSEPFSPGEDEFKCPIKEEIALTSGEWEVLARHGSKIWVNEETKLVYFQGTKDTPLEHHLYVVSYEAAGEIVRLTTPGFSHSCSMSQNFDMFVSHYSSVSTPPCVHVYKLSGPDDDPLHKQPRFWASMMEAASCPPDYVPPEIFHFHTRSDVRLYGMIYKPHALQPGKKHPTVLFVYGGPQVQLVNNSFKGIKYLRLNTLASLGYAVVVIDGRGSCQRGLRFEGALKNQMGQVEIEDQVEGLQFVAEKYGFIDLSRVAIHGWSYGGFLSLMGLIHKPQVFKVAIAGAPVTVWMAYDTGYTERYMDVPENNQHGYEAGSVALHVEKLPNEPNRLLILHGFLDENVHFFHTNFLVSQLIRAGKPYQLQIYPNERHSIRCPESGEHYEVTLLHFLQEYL
Procedure: 7-Amino-4-Methylcoumarin (AMC) release was detected by measuring fluorescence at Ex/Em 380/460 nm using a Multifunction Microplate Reader (Synergy 4, Biotek). All measurements were carried out in triplicate.

mouse plasma DPPIV = target: T4, mouse plasma DPPIV (Mus musculus, UniProt P28843); assay: DPPIV enzymatic activity in mouse plasma; format: biochemical; conditions: C57BL/6 mouse plasma; H-Gly-Pro-AMC substrate
T4 construct: from tissue; host or cells: mouse plasma (C57BL/6, EDTA)
T4 sequence (P28843 37-760 limits assumed): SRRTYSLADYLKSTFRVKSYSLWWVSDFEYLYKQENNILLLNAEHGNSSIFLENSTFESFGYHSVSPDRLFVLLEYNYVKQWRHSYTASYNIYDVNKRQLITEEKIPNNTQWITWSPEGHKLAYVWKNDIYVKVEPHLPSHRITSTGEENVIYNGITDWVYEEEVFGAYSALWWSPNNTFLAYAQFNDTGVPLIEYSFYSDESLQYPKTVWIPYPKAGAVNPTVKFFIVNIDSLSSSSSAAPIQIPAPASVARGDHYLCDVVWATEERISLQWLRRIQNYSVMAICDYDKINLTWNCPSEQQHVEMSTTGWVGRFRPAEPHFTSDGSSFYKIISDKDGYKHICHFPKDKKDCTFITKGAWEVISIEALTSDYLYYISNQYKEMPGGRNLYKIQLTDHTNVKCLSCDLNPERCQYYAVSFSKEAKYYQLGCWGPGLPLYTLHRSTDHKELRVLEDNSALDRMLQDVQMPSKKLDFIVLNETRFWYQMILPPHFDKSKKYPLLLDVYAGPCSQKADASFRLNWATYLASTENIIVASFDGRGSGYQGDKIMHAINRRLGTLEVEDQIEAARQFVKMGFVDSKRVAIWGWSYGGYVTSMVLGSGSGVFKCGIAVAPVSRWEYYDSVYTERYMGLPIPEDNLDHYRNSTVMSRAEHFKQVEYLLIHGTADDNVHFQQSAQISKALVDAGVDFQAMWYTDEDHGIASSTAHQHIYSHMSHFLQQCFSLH
Outline: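 C57BL/6 mouse EDTA plasma, diluted in pH 7.5 Tris/NaCl/salicylic acid/EDTA buffer, preincubated 15 min at 37° C with compound or DMSO. H-Gly-Pro-AMC substrate added (200 μM solution, before mixing), reaction 1 h at 37° C; AMC fluorescence read at Ex 360/Em 460 nm, at least duplicate.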

[4] = Intravenous and oral bioavailability in mice; format: in vivo; conditions: mouse, plasma; for AUC(0-t): oral (PO) 10 mg/kg single dose; for bioavailability: PO 10 mg/kg vs IV 2 mg/kg, read-out: F (bioavailability)
Procedure: The pharmacokinetic properties of exemplary test compounds were assayed after administration of an intravenous (IV) 2 mg/kg or oral (PO) 10 mg/kg single dose in mice. Exemplary test compounds were formulated at 0.4 and 1 mg/ml in a vehicle containing Poly-Ethylene Glycol 200 (PEG200; Cat. No. #P3015, Sigma Aldrich) and distilled water (dH2O) (50/50, v/v) as dosing solutions for intravenous and oral administration, respectively.
C57BL/6j and Balb/c mice, approximately 8-10 weeks old, were obtained from the vivarium Fundación Ciencia & Vida Chile (Santiago, Chile) and maintained in a temperature-controlled room with 12/12 hr light/dark schedule with food and water ad libitum. Animals were acclimated for a minimum period of 4 days upon arrival at the testing facility.
On the day of study, mice were weighed and identified by marking the tail with numbers using a non-toxic permanent marker for designation into the experimental groups (n=3 per group). Each mouse in the IV dosing groups received a systemic bolus of 2 mg/kg dosing solution via the caudal vein.
Non-dosed mice were used to collect samples of zero time points. […] Blood samples were centrifuged immediately at 9,000 g at 4° C. for 5 min and the plasma was separated.
The plasma samples were analyzed by QTRAP 4500 triple quadrupole mass spectrometer (Applied Biosystems SCIEX) in positive or negative ion mode depending on the tested compound and interfaced with an ekspert ultraLC 100-XL UPLC System (eksigent) to determine the concentration of the exemplary test compound. […] The precipitated samples were centrifuged at 6,100 g for 30 min at 4° C. Following centrifugation, an aliquot of each supernatant was transferred into a clean sample vial and diluted with two volumes of aqueous mobile phase (0.2% formic acid in water). Samples were injected onto a reverse phase analytical column (YMC Triart C18; 2.0×50 mm; 1.9 μm; YMC CO) and eluted with a gradient of 0.1 or 0.2% formic acid in Acetonitrile. Test compound and internal standard were monitored by a multiple reaction monitoring (MRM) experiment using Analyst software (v1.6.2, Applied Biosystems SCIEX). Quantitation was conducted using MultiQuant software (v2.1, Applied Biosystems SCIEX) and the resulting calibration curve was fitted with a linear or quadratic regression and 1/x weighting.
IV and PO PK parameters were calculated from the concentration-time data using Phoenix WinNonlin software (v6.4, Certara, Princeton, N.J.) by noncompartmental analysis. Area under the concentration-time curve (AUClast) was estimated using a log-linear trapezoidal method, from the dosing time to the last measurable concentration.

SMILES	IC50 ([1]; Table 2, Z-Gly-Pro-AMC) [nM]	IC50 ([1]; Table 3) [nM]	inhibition at 1 µM ([1]; read-out: rhFAPα (% exo inh @ 1 μM)) [%]	IC50 [2] [µM]	IC50 [3] [µM]	IC50 (mouse plasma DPPIV) [nM]	AUC(0-t) [4] [ng·h/mL]	bioavailability [4] [%]
N#C[C@@H]1CC(F)(F)CN1C(=O)CNC(=O)c1c[nH]c(=O)cc1-c1ccc(F)cc1 [Compound 109, (S)—N-(2-(2-cyano-4,4-difluoropyrrolidin-1-yl)-2-oxoethyl)-4-(4-fluorophenyl)-6-oxo-1,6-dihydropyridine-3-carboxamide]	< 1000	< 1000	> 50	1 to 10	1 to 10	1000 to 10000	2140	9
N#C[C@@H]1CC(F)(F)CN1C(=O)CNC(=O)c1c[nH]c(=O)c2ccccc12 [Example 1, (S)—N-(2-(2-cyano-4,4-difluoropyrrolidin-1-yl)-2-oxoethyl)-1-oxo-1,2-dihydroisoquinoline-4-carboxamide]	< 1000	< 1000		1 to 10	1 to 10	< 1000	327	6.3
